Experimental data: patent US9771369B2, “Compounds and methods for kinase modulation, and indications therefor” (Plexxikon Inc., priority 2014, dated 2017)

Biological target: c-kit mutant D816V (Homo sapiens (Human), UniProt P10721, D816V/DEL694-753)
Assay: c-Kit mutant D816V biochemical assay (AlphaScreen kinase activity)
Description: The c-kit mutant D816V (or kinase domain thereof) is an active kinase in AlphaScreen. IC50 values are determined with respect to inhibition of c-Kit mutant D816V kinase activity, where inhibition of phosphorylation of a peptide substrate is measured as a function of compound concentration. Compounds to be tested were dissolved in DMSO to a concentration of 30 mM. These were diluted […] of DMSO (4 mM) and 1 μl was added to an assay plate. These were then serially diluted 1:3 (50 μl to […] DMSO) for a total of 8 points. Plates were prepared such that each kinase reaction is […] in 1× kinase buffer (25 mM HEPES, pH 7.2, 8 mM MgCl2, 2 mM MnCl2, 50 mM NaCl, 0.01% Brij, 1 mM DTT, 0.01% BSA), 5% DMSO and 10 μM ATP. Substrate was 30 nM biotin-(E4Y)10 (EMD Millipore, Cat#12-440). C-kit mutant D816V kinase was at 0.75 ng per sample. After incubation of the kinase reaction for 30 minutes at room temperature, 5 μl of donor beads (Streptavidin coated beads (Perkin Elmer Life Science) final concentration 7.5 μg/ml) in stop buffer (25 mM Hepes pH 7.5, 100 mM EDTA, 0.01% BSA) was added, the sample was mixed and incubated for 30 minutes at room temperature before adding […] of acceptor beads (PY30 coated beads (Perkin Elmer Life Science) final concentration 7.5 μg/ml) in stop buffer. The samples were incubated for 60 minutes at room temperature and the signal per well was read on EnVision reader. Phosphorylated substrate results in binding of the PY30 antibody and association of the donor and acceptor beads such that signal correlates with kinase activity. The signal vs. compound concentration was used to determine the IC50.
Recombinant c-kit mutant D816V (residues 551-934, kinase insertion domain residues 694-753 deleted) with a 6×-histidine N-terminal tag (SEQ ID NO: 3) was expressed in E. coli Arctic Express (DE3) RIL (Stratagene). Cells were grown in Terrific Broth (TB) media to an OD600 of 0.6 at 37° C. at which temperature was reduced to 10° C., protein was induced with 1.0 mM IPTG for 18 hours and harvested by centrifugation at 8000×g for 30 minutes. Cells were re-suspended in 0.1M KPO4 pH 8.0, 250 mM NaCl, 10% Glycerol, 0.75% NP-40, 25 mM Imidazole, 5 mM BME with 0.2 mg/ml Lysosyme, 2.0 mM PMSF, 25 μg/ml DNAse I, incubated in ice for 30 minutes and lyzed with a cell disruptor (MicroFluidics). The lysate was clarified by centrifugation at 30,000×g for 2 hours. The protein was captured with Talon resin (Clontech). Contaminating proteins were washed off with 25 mM Tris-HCl pH 8.3, 250 mM NaCl, 15% Glycerol, 1% Triton X-100, and protein eluted using 100 mM EDTA. The protein was further purified using Gel Filtration column 26/600 Superdex 300 (GE) in 50 mM Tris-HCl , pH 8.0, 250 mM NaCl, 15% Glycerol, 5 mM BME. The protein was aliquoted and flash-frozen in liquid Nitrogen.

Chain of c-kit mutant D816V (P10721 other isoform, or with tags, fused parts or gaps D816V/del 694-753): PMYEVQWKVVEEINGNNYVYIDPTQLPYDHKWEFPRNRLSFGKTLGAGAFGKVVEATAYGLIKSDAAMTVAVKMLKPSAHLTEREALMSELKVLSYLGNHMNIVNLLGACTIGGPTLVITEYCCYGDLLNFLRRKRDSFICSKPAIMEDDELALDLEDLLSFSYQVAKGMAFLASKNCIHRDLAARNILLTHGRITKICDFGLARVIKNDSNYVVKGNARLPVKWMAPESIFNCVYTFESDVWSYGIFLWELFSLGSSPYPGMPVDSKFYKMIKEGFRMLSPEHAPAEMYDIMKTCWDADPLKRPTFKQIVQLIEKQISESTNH

| Compound | IC50 |
| --- | --- |
| Cc1nc(C2CCN(c3ncnc4[nH]c(-c5cnn(C(F)F)c5)cc34)CC2)[nH]c1-c1ccc(OC(F)(F)F)cc1 [P-3116, 6-[1-(difluoromethyl)pyrazol-4-yl]-4-[4-[4-methyl-5-[4-(trifluoromethoxy)phenyl]-1H-imidazol-2-yl]-1-piperidyl]-7H-pyrrolo[2,3-d]pyrimidine] | 0.0001 to 1 µM |
| COc1cc(-c2cc3c(N4CCC(c5nc(C)c(-c6ccc(C)s6)[nH]5)CC4)ncnc3[nH]2)ccn1 [P-3117, 6-(2-methoxy-4-pyridyl)-4-[4-[4-methyl-5-(5-methyl-2-thienyl)-1H-imidazol-2-yl]-1-piperidyl]-7H-pyrrolo[2,3-d]pyrimidine] | 0.0001 to 1 µM |
| Cc1ccc(-c2[nH]c(C3CCN(c4ncnc5[nH]c(-c6ccc(F)cc6)cc45)CC3)nc2C)s1 [P-3118, 6-(4-fluorophenyl)-4-[4-[4-methyl-5-(5-methyl-2-thienyl)-1H-imidazol-2-yl]-1-piperidyl]-7H-pyrrolo[2,3-d]pyrimidine] | 0.0001 to 1 µM |
| Cc1nc(C2CCN(c3ncnc4[nH]c(-c5ccc(F)cc5)cc34)CC2)[nH]c1-c1ccc(Cl)s1 [P-3119, 4-[4-[5-(5-chloro-2-thienyl)-4-methyl-1H-imidazol-2-yl]-1-piperidyl]-6-(4-fluorophenyl)-7H-pyrrolo[2,3-d]pyrimidine] | 0.0001 to 1 µM |
| Cc1cc2c(N3CCC(c4nc(C)c(-c5ccc6c(c5)OCO6)[nH]4)CC3)ncnc2[nH]1 [P-3120, 4-[4-[5-(1,3-benzodioxol-5-yl)-4-methyl-1H-imidazol-2-yl]-1-piperidyl]-6-methyl-7H-pyrrolo[2,3-d]pyrimidine] | 1 to 10 µM |
| Cc1cc2c(N3CCC(c4nc(C)c(-c5ccc6c(c5)OCCO6)[nH]4)CC3)ncnc2[nH]1 [P-3121, 4-[4-[5-(2,3-dihydro-1,4-benzodioxin-6-yl)-4-methyl-1H-imidazol-2-yl]-1-piperidyl]-6-methyl-7H-pyrrolo[2,3-d]pyrimidine] | 0.0001 to 1 µM |
| Cc1nn(C)cc1-c1cc2c(N3CCC(c4nc(C)c(-c5ccc(OC(F)(F)F)cc5)[nH]4)CC3)ncnc2[nH]1 [P-3122, 6-(1,3-dimethylpyrazol-4-yl)-4-[4-[4-methyl-5-[4-(trifluoromethoxy)phenyl]-1H-imidazol-2-yl]-1-piperidyl]-7H-pyrrolo[2,3-d]pyrimidine] | 0.0001 to 1 µM |
| COc1cccc(-c2[nH]c(C3CCN(c4ncnc5[nH]c(-c6ccnc(OC)c6)cc45)CC3)nc2C(F)(F)F)c1 [P-3123, 4-[4-[5-(3-methoxyphenyl)-4-(trifluoromethyl)-1H-imidazol-2-yl]-1-piperidyl]-6-(2-methoxy-4-pyridyl)-7H-pyrrolo[2,3-d]pyrimidine] | 0.0001 to 1 µM |
| COc1cccc(-c2[nH]c(C3CCN(c4ncnc5[nH]c(-c6ccc(C#N)cc6)cc45)CC3)nc2C(F)(F)F)c1 [P-3124, 4-[4-[4-[5-(3-methoxyphenyl)-4-(trifluoromethyl)-1H-imidazol-2-yl]-1-piperidyl]-7H-pyrrolo[2,3-d]pyrimidin-6-yl]benzonitrile] | 0.0001 to 1 µM |
| CCOc1ccc(-c2[nH]c(C3CCN(c4ncnc5[nH]c(C)cc45)CC3)nc2C)cc1C [P-3125, 4-[4-[5-(4-ethoxy-3-methyl-phenyl)-4-methyl-1H-imidazol-2-yl]-1-piperidyl]-6-methyl-7H-pyrrolo[2,3-d]pyrimidine] | 1 to 10 µM |
| CCOc1cc(-c2[nH]c(C3CCN(c4ncnc5[nH]c(C)cc45)CC3)nc2C)ccc1C [P-3126, 4-[4-[5-(3-ethoxy-4-methyl-phenyl)-4-methyl-1H-imidazol-2-yl]-1-piperidyl]-6-methyl-7H-pyrrolo[2,3-d]pyrimidine] | 0.0001 to 1 µM |
| Cc1cc2c(N3CCC(c4nc(C)c(-c5ccc6c(c5)OC(F)(F)O6)[nH]4)CC3)ncnc2[nH]1 [P-3127, 4-[4-[5-(2,2-difluoro-1,3-benzodioxol-5-yl)-4-methyl-1H-imidazol-2-yl]-1-piperidyl]-6-methyl-7H-pyrrolo[2,3-d]pyrimidine] | 1 to 10 µM |
| COc1ccc(-c2[nH]c(C3CCN(c4ncnc5[nH]c(C)cc45)CC3)nc2C)cc1C [P-3128, 4-[4-[5-(4-methoxy-3-methyl-phenyl)-4-methyl-1H-imidazol-2-yl]-1-piperidyl]-6-methyl-7H-pyrrolo[2,3-d]pyrimidine] | 0.0001 to 1 µM |
| COc1cc(-c2[nH]c(C3CCN(c4ncnc5[nH]c(C)cc45)CC3)nc2C)ccc1C [P-3129, 4-[4-[5-(3-methoxy-4-methyl-phenyl)-4-methyl-1H-imidazol-2-yl]-1-piperidyl]-6-methyl-7H-pyrrolo[2,3-d]pyrimidine] | 1 to 10 µM |
| COc1ccc(-c2[nH]c(C3CCN(c4ncnc5[nH]c(C)cc45)CC3)nc2C)cc1 [P-3130, 4-[4-[5-(4-methoxyphenyl)-4-methyl-1H-imidazol-2-yl]-1-piperidyl]-6-methyl-7H-pyrrolo[2,3-d]pyrimidine] | 1 to 10 µM |
| COc1cccc(-c2[nH]c(C3CCN(c4ncnc5[nH]c(C)cc45)CC3)nc2C)c1 [P-3131, 4-[4-[5-(3-methoxyphenyl)-4-methyl-1H-imidazol-2-yl]-1-piperidyl]-6-methyl-7H-pyrrolo[2,3-d]pyrimidine] | 0.0001 to 1 µM |
| Cc1nc(C2CCN(c3ncnc4[nH]c(-c5ccc(C#N)cc5)cc34)CC2)[nH]c1-c1ccc2c(c1)OCCO2 [P-3132, 4-[4-[4-[5-(2,3-dihydro-1,4-benzodioxin-6-yl)-4-methyl-1H-imidazol-2-yl]-1-piperidyl]-7H-pyrrolo[2,3-d]pyrimidin-6-yl]benzonitrile] | 0.0001 to 1 µM |
| Cc1nc(C2CCN(c3ncnc4[nH]c(-c5cnn(C(F)F)c5)cc34)CC2)[nH]c1-c1ccc2c(c1)OCCO2 [P-3133, 6-[1-(difluoromethyl)pyrazol-4-yl]-4-[4-[5-(2,3-dihydro-1,4-benzodioxin-6-yl)-4-methyl-1H-imidazol-2-yl]-1-piperidyl]-7H-pyrrolo[2,3-d]pyrimidine] | 0.0001 to 1 µM |
| COc1cc(-c2cc3c(N4CCC(c5nc(C(F)(F)F)c(-c6ccc(C)cc6)[nH]5)CC4)ncnc3[nH]2)ccn1 [P-3134, 6-(2-methoxy-4-pyridyl)-4-[4-[5-(p-tolyl)-4-(trifluoromethyl)-1H-imidazol-2-yl]-1-piperidyl]-7H-pyrrolo[2,3-d]pyrimidine] | 0.0001 to 1 µM |
| Cc1ccc(-c2[nH]c(C3CCN(c4ncnc5[nH]c(-c6ccc(F)cc6)cc45)CC3)nc2C(F)(F)F)cc1 [P-3135, 6-(4-fluorophenyl)-4-[4-[5-(p-tolyl)-4-(trifluoromethyl)-1H-imidazol-2-yl]-1-piperidyl]-7H-pyrrolo[2,3-d]pyrimidine] | 0.0001 to 1 µM |
| Cc1nc(C2CCN(c3ncnc4[nH]c(-c5ccc(F)cc5)cc34)CC2)[nH]c1-c1ccc(C(F)(F)F)cc1 [P-3136, 6-(4-fluorophenyl)-4-[4-[4-methyl-5-[4-(trifluoromethyl)phenyl]-1H-imidazol-2-yl]-1-piperidyl]-7H-pyrrolo[2,3-d]pyrimidine] | 0.0001 to 1 µM |
| Cc1nc(C2CCN(c3ncnc4[nH]c(-c5ccc(C#N)cc5)cc34)CC2)[nH]c1-c1ccc(C(F)(F)F)cc1 [P-3137, 4-[4-[4-[4-methyl-5-[4-(trifluoromethyl)phenyl]-1H-imidazol-2-yl]-1-piperidyl]-7H-pyrrolo[2,3-d]pyrimidin-6-yl]benzonitrile] | 0.0001 to 1 µM |
| Cc1nc(C2CCN(c3ncnc4[nH]c(-c5cnn(C(F)F)c5)cc34)CC2)[nH]c1-c1ccc2c(c1)OCO2 [P-3138, 4-[4-[5-(1,3-benzodioxol-5-yl)-4-methyl-1H-imidazol-2-yl]-1-piperidyl]-6-[1-(difluoromethyl)pyrazol-4-yl]-7H-pyrrolo[2,3-d]pyrimidine] | 0.0001 to 1 µM |
| CCOc1ccc(-c2[nH]c(C3CCN(c4ncnc5[nH]c(-c6cnn(C(F)F)c6)cc45)CC3)nc2C)cc1C [P-3139, 6-[1-(difluoromethyl)pyrazol-4-yl]-4-[4-[5-(4-ethoxy-3-methyl-phenyl)-4-methyl-1H-imidazol-2-yl]-1-piperidyl]-7H-pyrrolo[2,3-d]pyrimidine] | 0.0001 to 1 µM |
| CCC1(c2nc(C)c(-c3ccc(OC)cc3)[nH]2)CCN(c2ncnc3[nH]c(C)cc23)CC1 [P-3140, 4-[4-ethyl-4-[5-(4-methoxyphenyl)-4-methyl-1H-imidazol-2-yl]-1-piperidyl]-6-methyl-7H-pyrrolo[2,3-d]pyrimidine] | 0.0001 to 1 µM |
